In brackets after ≈: the same amount, converted by molar mass. Where two headings read alike, the source gives them in different places.

Data set [1] can be described thus: stability (air, light, water, chloride, storage). To be noted: 37: bromide salt; 20a, 20b: bromide salts.
For data set [2], the system named is Methicillin resistant Staphylococcus aureus (MRSA). Nature of the data set: Efficacy data MIC and MBC (Table 7). The data set is classed as cell-based.
Data set [3] deals with Stenotrophomonas maltophilia. Nature of the data set: Efficacy data MIC and MBC (Table 7). The format is cell-based. To be noted: isolate SM AH08.
The subject of a further data set is Alcaligenes xylosoxidans. Nature of the data set: Efficacy data MIC and MBC (Table 7). The format is cell-based.
The next data set relates to Yersinia pestis. Nature of the data set: microbe, parasite or virus in culture. The data set is classed as cell-based.
The subject of another data set is Pseudomonas aeruginosa. Nature of the data set: Efficacy data MIC and MBC (Table 7). The format is cell-based.
A further data set relates to Escherichia coli. Nature of the data set: Efficacy data MIC and MBC (Table 7). The data set is classed as cell-based.

For `CN1c2c(n(C)c(=O)n(C)c2=O)N(C)[CH]1[Ag][CH]1N(C)c2c(n(C)c(=O)n(C)c2=O)N1C` (stereo not shown) [Formula 97a], the stability in water result in data set [1] is given as “stable in water for five days”.
`CC(C)Cc1ccc(C(C)C(=O)[O][Ag][c]2n(C)c3c(=O)n(C)c(=O)n(C)c3[n+]2C)cc1` (stereo not shown) [SCC1-IBU]: the MBC in data set [2] (isolate SA EH06) stood at 4 µg/mL; in data set [2] (isolate SA LL06), 6 µg/mL; in data set [3], 2 µg/mL; in the data set with Alcaligenes xylosoxidans (isolate AX 22) it was 2 µg/mL; with Alcaligenes xylosoxidans (isolate AX RE05), 2 µg/mL; in the data set with Yersinia pestis (isolate YP1-1CO92-LCR-) it was 2 µg/mL. For the same molecule, the MBC with Pseudomonas aeruginosa (isolate PA 01-V) was determined as 6 µg/mL; in the data set with Pseudomonas aeruginosa (isolate PA HP3), 2 µg/mL; against Pseudomonas aeruginosa (isolate PA LF05), 1 µg/mL; with Pseudomonas aeruginosa (isolate PA M57-15), 2 µg/mL; against Pseudomonas aeruginosa (isolate PA RR05) it was 2 µg/mL; against Escherichia coli (isolate J53), 0.5 µg/mL. Besides, the MBC in the data set on Escherichia coli (isolate J53 + pMG101) is above 20 µg/mL. For the same molecule, the MIC in data set [2] (isolate SA EH06) stood at 2 µg/mL; in data set [2] (isolate SA LL06), 2 µg/mL; in data set [3] it was 1 µg/mL; against Alcaligenes xylosoxidans (isolate AX 22) it was 0.5 µg/mL; in the data set with Alcaligenes xylosoxidans (isolate AX RE05) it was 1 µg/mL; with Yersinia pestis (isolate YP1-1CO92-LCR-) it was 0.5 µg/mL. Moreover, the MIC against Pseudomonas aeruginosa (isolate PA 01-V) is 2 µg/mL; in the data set on Pseudomonas aeruginosa (isolate PA HP3), 0.25 µg/mL; in the data set on Pseudomonas aeruginosa (isolate PA LF05), 1 µg/mL; in the data set on Pseudomonas aeruginosa (isolate PA M57-15), 1 µg/mL; against Pseudomonas aeruginosa (isolate PA RR05), 0.25 µg/mL; in the data set on Escherichia coli (isolate J53), 0.5 µg/mL. Moreover, the MIC with Escherichia coli (isolate J53 + pMG101) was above 20 µg/mL.
`CC(=O)[O][Ag][c]1n(C)c2c(=O)n(C)c(=O)n(C)c2[n+]1C` [SCC1]: the MBC was 20 µg/mL in data set [2] (isolate SA EH06); 10 µg/mL in data set [2] (isolate SA LL06); 8 µg/mL in data set [3]; 2 µg/mL in the data set with Alcaligenes xylosoxidans (isolate AX 22); 8 µg/mL against Alcaligenes xylosoxidans (isolate AX RE05); 1 µg/mL with Yersinia pestis (isolate YP1-1CO92-LCR-). Moreover, the MBC against Pseudomonas aeruginosa (isolate PA 01-V) is 2 µg/mL; against Pseudomonas aeruginosa (isolate PA HP3) it was 8 µg/mL; with Pseudomonas aeruginosa (isolate PA LF05) it was 1 µg/mL; against Pseudomonas aeruginosa (isolate PA M57-15) it was 4 µg/mL; against Pseudomonas aeruginosa (isolate PA RR05), 1 µg/mL; against Escherichia coli (isolate J53) it was 1 µg/mL. The MBC with Escherichia coli (isolate J53 + pMG101) was above 20 µg/mL. In addition, the MIC is 6 µg/mL in data set [2] (isolate SA EH06); 8 µg/mL in data set [2] (isolate SA LL06); 4 µg/mL in data set [3]; 0.5 µg/mL in the data set on Alcaligenes xylosoxidans (isolate AX 22); 4 µg/mL in the data set with Alcaligenes xylosoxidans (isolate AX RE05); 0.5 µg/mL against Yersinia pestis (isolate YP1-1CO92-LCR-). Moreover, the MIC was found to be 1 µg/mL with Pseudomonas aeruginosa (isolate PA 01-V); 4 µg/mL against Pseudomonas aeruginosa (isolate PA HP3); 1 µg/mL in the data set on Pseudomonas aeruginosa (isolate PA LF05); 2 µg/mL with Pseudomonas aeruginosa (isolate PA M57-15); 0.5 µg/mL in the data set on Pseudomonas aeruginosa (isolate PA RR05); 1 µg/mL against Escherichia coli (isolate J53). Further, the MIC in the data set on Escherichia coli (isolate J53 + pMG101) was above 20 µg/mL.
Consider `NC[C@H]1O[C@H](O[C@H]2[C@H](O)[C@@H](O[C@H]3O[C@H](CO)[C@@H](O)[C@H](N)[C@H]3O)[C@H](N)C[C@@H]2N)[C@H](N)C[C@@H]1O` [Tobramycin, reference compound], for which the MBC in data set [2] (Staphylococcus aureus, MRSA, isolate SA LL06, read-out: MBC) is above 20 µg/mL; in data set [2] (isolate SA EH06) it was above 20 µg/mL; in data set [3] (Stenotrophomonas maltophilia, read-out: MBC), 20 µg/mL (≈ 42.8 µM); in the data set on Alcaligenes xylosoxidans (Achromobacter xylosoxidans, isolate AX 22, read-out: MBC), above 20 µg/mL; in the data set with Alcaligenes xylosoxidans (isolate AX RE05), above 20 µg/mL; in the data set with Yersinia pestis (Yersinia pestis), 0.25 µg/mL (≈ 0.535 µM). For the same molecule, the MBC in the data set on Pseudomonas aeruginosa (Pseudomonas aeruginosa, isolate PA 01-V, read-out: MBC) was above 20 µg/mL; with Pseudomonas aeruginosa (Pseudomonas aeruginosa, isolate PA HP3, read-out: MBC) it was 8 µg/mL (≈ 17.1 µM); in the data set on Pseudomonas aeruginosa (Pseudomonas aeruginosa, isolate PA LF05, read-out: MBC) it was 1 µg/mL (≈ 2.14 µM); with Pseudomonas aeruginosa (Pseudomonas aeruginosa, isolate PA M57-15, read-out: MBC) it was 1 µg/mL (≈ 2.14 µM); with Pseudomonas aeruginosa (Pseudomonas aeruginosa, isolate PA RR05, read-out: MBC), 1 µg/mL (≈ 2.14 µM); with Escherichia coli (Escherichia coli, isolate J53, read-out: MBC), 1 µg/mL (≈ 2.14 µM). Moreover, the MBC in the data set on Escherichia coli (isolate J53 + pMG101) worked out at 1 µg/mL. Further, the MIC is above 20 µg/mL in data set [2] (Staphylococcus aureus, MRSA, isolate SA LL06, read-out: MIC); above 20 µg/mL in data set [2] (isolate SA EH06); 8 µg/mL (≈ 17.1 µM) in data set [3] (Stenotrophomonas maltophilia, read-out: MIC); above 20 µg/mL with Alcaligenes xylosoxidans (Achromobacter xylosoxidans, isolate AX RE05, read-out: MIC); 20 µg/mL (≈ 42.8 µM) with Alcaligenes xylosoxidans (Achromobacter xylosoxidans, isolate AX 22, read-out: MIC); 0.25 µg/mL (≈ 0.535 µM) in the data set with Yersinia pestis (Yersinia pestis). Besides, the MIC in the data set with Pseudomonas aeruginosa (Pseudomonas aeruginosa, isolate PA 01-V, read-out: MIC) is 15 µg/mL (≈ 32.1 µM); in the data set with Pseudomonas aeruginosa (Pseudomonas aeruginosa, isolate PA HP3, read-out: MIC), 4 µg/mL (≈ 8.56 µM); in the data set on Pseudomonas aeruginosa (Pseudomonas aeruginosa, isolate PA LF05, read-out: MIC) it was 0.5 µg/mL (≈ 1.07 µM); with Pseudomonas aeruginosa (Pseudomonas aeruginosa, isolate PA M57-15, read-out: MIC), 0.5 µg/mL (≈ 1.07 µM); in the data set on Pseudomonas aeruginosa (Pseudomonas aeruginosa, isolate PA RR05, read-out: MIC), 0.5 µg/mL (≈ 1.07 µM); with Escherichia coli (Escherichia coli, isolate J53, read-out: MIC), 1 µg/mL (≈ 2.14 µM). Besides, the MIC in the data set on Escherichia coli (isolate J53 + pMG101) worked out at 1 µg/mL.

The values above are taken from patent US8648205B2, “Metal complexes of N-heterocyclic carbenes” (The University of Akron, priority 2003, dated 2014).
